From patent publication US10048278B2, “Screening for neurotoxic amino acid associated with neurological disorders” (priority 2003, dated 2018)

Assays:
[1] = rats; cited from earlier work
[2] = Banack & Cox, 2003; cited from earlier work
[3] = BMAA in dried skin of flying fox museum specimens (HPLC); details: Pteropus mariannus dried skin
Experimental: BMAA levels were measured in tissues of Cycas micronesica Hill from Guam, and tissues of Pteropus mariannus mariannus, an indigenous flying fox (bat) of Guam. Because Pteropus mariannus mariannus is now highly endangered, BMAA levels were measured in skin tissue from museum specimens of three flying foxes that were collected five decades ago in Guam, preserved as dried study skins, and deposited at the Museum of Vertebrate Zoology (MVZ), at the University of California, Berkeley.
BMAA was detected using high performance liquid chromatography (HPLC), and results were confirmed with thin layer chromatography (TLC) and gas chromatography-mass spectroscopy (GC-MS). For BMAA analysis, free amino acid extracts of flying fox and cycad tissues were prepared. Tissue samples were rehydrated for 30 minutes with water or trichloroacetic acid (mean tissue prep 80 mg/ml±32 SD), macerated, and filtered. Extracts were derivatized with 6-aminoquinolyl-N-hydrozysuccinimidyl carbamate (ACQ) following standardized protocols. […] The concentration of BMAA in samples was determined by the fluorescent tag using a Waters 2487 Dual-1 Fluorescence Detector, with excitation at 250 nm and emission at 395 nm. Detection of the ACQ-derivatized BMAA was dependent on concentration and quantification was accomplished with comparison of equal amounts of BMAA and a norleucine internal standard (representing a single mid-range concentration) resulting in a mean response of 51.2%. […] The limits of detection (LOD, defined as the lowest concentration of an analyte in a sample that can be detected though not necessarily quantitated) and limits of quantification (LOQ, the concentration within the linear range of the calibration curve relating absorbance to concentration) were determined by a concentration gradient of an authenticated standard (Sigma Chemical Co., St. Louis, Mo.). […] For data interpretations, all sample analyses were quantified within the range of the LOQ or were reported as not detected (ND) (Table 1). […]

[4] = Free and protein-associated BMAA in superior frontal gyrus tissue of patients; set-up: species or system human
Experimental: Tissues were provided by Dr. Patrick McGeer of the University of British Columbia, Vancouver, B.C., Canada. Autopsied tissues from patients were fixed in paraformaldehyde prior to storage in 15% buffered sucrose maintenance solution, where the time interval between death and autopsy varied from 4 hours to 5 days. Familial relationships, clinical histories, and histochemical characteristics of the Chamorro patients had been disclosed previously (McGeer et al, 1997, Neurology 49, 400-409). In addition, autopsied tissued from Canadian patients was provided, including two samples from two (2) Canadian patients who were clinically diagnosed with Alzheimer's disease prior to death, and thirteen (13) Canadian patients who died of natural causes other than progressive neurodegenerative diseases.
Tissues were homogenized twice in 0.1 N trichloroacetic acid and centrifuged at 15,800×g for 3 min to precipitate proteins and extract free amino acids. Protein-bound BMAA was released by hydrolysis of the precipitate at 110° C. in constant boiling 6N HCl for 24 hours. Particulate matter was removed from a 500 μl aliquot by ultrafiltration (Ultrafree-MC, Millipore Corp.) at 15,800×g and the resulting extract was freeze-dried. Amino acids were resuspended in 20 mM HCl, applied to a Sep-Pac C18 cartridge equilibrated with sequential washes of 100% methanol, 50% methanol in water, and a gradient of borate buffer:acetronitrile (0.5M borate:0-60% CH3CN) at 20% increments. BMAA in sample extracts was derivatized with 6-aminoquinolyl-N-hydroxysuccinimidyl carbamate following standardized protocols (Banack et al., 2003, Neurology 61: 387-389). Amino acids were quantified via HPLC separation as described above (Example 3). The presence of BMAA in the samples, as well as the identity and purity of the BMAA peak in the HPLC fractions, was verified by liquid chromatography mass spectroscopy (LC-MS) using an Agilent 1100 HPLC coupled with a variable wavelength diode array detector (DAD) and an SL single quadrapole MS with an atmospheric pressure ionization source (API) using the electrospray ionization interface (ESI). Compounds were separated on a Waters SymetryShield RP 18 column heated at 30° C. with a linear gradient elution of CH3CN (10 40%) in water. Nitrogen gas was purified and supplied to the ESI interface with a nebulizing pressure of 35 psi and two distinct modes were used for detection of compounds within the MS. The DAD detected compounds at 254 nm with a full spectral scan from 200 600 nm and 0.5 nm resolution within a semi micro flow cell. The initial signal was determined in positive scan mode with a 100 600 Da range at 50V fragmentor voltage. BMAA was identified using the extracted ion chromatogram in which the molecular ion peak was confirmed.

[5] = system: cyanobacterial symbiont; experiment: Effect of amino acid supplementation of BG-11 medium on cyanobacterial growth; format: cell-based, Nostoc; details: BG-11 medium supplemented with glutamate or glutamine (0, 126, or 250 μmol/L)
Excerpt: Cyanobacterial symbionts were isolated from infected coralloid roots of Cycas micronesica Hill, harvested from three accessioned specimens (vouchered specimens of known provenance) growing in the National Tropical Botanical Garden, Kalaheo, Kauai, and grown as an axenic culture with repeated passages. For analysis of cycad root tissues infected with cyanobacterial symbiots, soil-borne bacteria were removed from root tissues of Cycas micronesica Hill by surface-sterilizing roots immersion in a solution of 70% ethanol for 3 min, followed by a 30 min immersion in 1.6% sodium hypochlorite with 2 drops of surfactant and 3 sequential washes with sterile deionized water. Surface-sterilized root explants (1-2 cm long) were excised and cultured onto standard BG-11 medium, pH 7.1 solidified with gellam gum (Sigma). Root explant cultures were incubated in a controlled environment room with a 16 h photoperiod at a light intensity of 35-45 μmole/m^2/s and temperatures of 25-30° C. After 7-10 days of culture, proliferation of colonies of the cyanobacterial symbiont of the root explants was clearly visible. Serial subculture of individual cyanobacterial colonies ensured the absence of residual BMAA from root tissue. […] Histological verification of culture purity was conducted prior to chemical analyses. […]

[6] = superior frontal gyrus, Alzheimer's, Canadian (first patient)
[7] = superior frontal gyrus, Alzheimer's, Canadian (second patient)
[8] = superior frontal gyrus, PDC (Lytico-bodig), Chamorro, donor one

CNC[C@H](N)C(=O)O [BMAA, β-N-methylamino-L-alanine]
injected BMAA not eliminated from either urine or feces [1]: 90% | stability in dried mammal specimens of great age [2]: stable | Concentration ([3]; specimen 114606): 1,879 μg/g | Concentration ([3]; specimen 114607): 7,502 μg/g | Concentration ([3]; specimen 114609): 1,287 μg/g | quantity of protein-bound BMAA compared to free BMAA ([4]; brain tissue, all other patients): 60-130 fold | BMAA recovered from the protein-bound fraction ([4]; brain tissue, one Lytico-Bodig (ALS-PDC) patient with no unbound BMAA): more than 1 mg/g | Protein-bound BMAA ([4]; frontal cortex tissue, all six Chamorro patients who had died from ALS-PDC): 149 to 1190 µg/g | Free BMAA ([4]; frontal cortex tissue, five of six Chamorro patients who had died from ALS-PDC): 3 to 10 µg/g | Free BMAA [4, 6]: 3.4 µg/g | Protein-bound BMAA [4, 6]: 220 µg/g | Free BMAA [4, 7]: 9.7 µg/g | Protein-bound BMAA [4, 7]: 264 µg/g | Free BMAA [4, 8]: 3.3 µg/g | Protein-bound BMAA [4, 8]: 433 µg/g | BMAA level in brain tissue ([4]; thirteen Canadian patients without Alzheimer's diagnosis who died of other causes): did not have detectable levels

N[C@@H](CCC(=O)O)C(=O)O [GLU, glutamic acid]
cyanobacterial growth [5]: increased two-fold

NC(=O)CC[C@H](N)C(=O)O [glutamine]
cyanobacterial growth [5]: increased two-fold
